The text below walks through data of patent publication US6924297B2, “Naphathalene derivatives which bind to the EP4 receptor” (SmithKline Beecham Corporation, priority 2000, dated 2005).

For this test, the target named is T1, human EP4 receptor (Homo sapiens, UniProt P35408).
T1 construct: expressed in transfected cells; host or cells: Chinese Hamster Ovary (CHO) cells infected with recombinant Semliki Forest Virus (SFV-1) particles; membranes prepared from these cells
Briefly: Human EP4 Scintillation Proximity Assay (radioligand binding). As to conditions: membranes of CHO cells expressing human EP4 receptor; [3H]-prostaglandin E2 radioligand; pKi from IC50 by Cheng-Prusoff; read-out: pKI at EP4 receptors (converted). As to the method: Quantification of radioligand binding by scintillation proximity assay (SPA) is a long-established principle. Briefly, the affinity of compounds for a receptor is assessed by the specific competition between known quantities of radiolabelled ligand and compound for that receptor. Increasing concentrations of compound reduce the amount of radiolabel that binds to the receptor. This gives rise to a diminishing scintillation signal from SPA beads coated with membranes that bear the receptor. The signal may be detected with a suitable scintillation counter and the data generated may be analysed with suitable curve-fitting software.
The human EP4 SPA assay (hereafter referred to as ‘the assay’) utilises membranes prepared from Chinese Hamster Ovary (CHO cells) infected with Semliki Forest Virus (SFV). Genetically engineered SFV-1 viral particles containing the genetic sequence of the human EP4 receptor were used to infect CHO cells resulting in expression of the receptor protein in cellular membranes. Cells washed free of media are homogenised in a pH-buffered medium containing peptidase inhibitors. A suitable buffer is of the following composition: 50 mM HEPES, 1 mM EDTA, 25 μg/ml bacitracin, 100 μM leupeptin, 1 mM PMSF, 2 μM Pepstatin A, pH adjusted to 7.4 with KOH. Following removal of cell debris by a low-speed centrifugation, a pellet of membranes is prepared by a high-speed (48000 g) centrifugation of the resulting supernatant. Membrane suspensions such as that described may be stored at −80° C. until used.
For assay, membranes expressing human EP4 receptors are diluted in a pH-buffered medium and mixed with SPA beads coated with a suitable substance to facilitate the adhesion of membranes to the beads. The concentrations of membrane protein and SPA beads chosen should result in SPA binding signal of at least 300 corrected counts per minute (CCPM) when tritiated radioligand at a concentration close to its Kd (affinity value) is combined with the mixture. Non-specific binding (nsb) may be determined by competition between the radiolabelled ligand and a saturating concentration of unlabelled ligand. In order to quantify the affinity of EP4 receptor ligands, compounds are diluted in a stepwise manner across the wells of a 96-well plate. Radioligand, compound, and unlabelled ligand are then added to a 96-well plate suitable for the measurement of SPA binding signals prior to the addition of bead/membrane mixture to initiate the binding reaction. Equilibrium may be achieved by incubation at room temperature for 120 minutes prior to scintillation counting. The data so generated may be analysed by means of a computerised curve-fitting routine in order to quantify the concentration of compound that displaces 50% of the specific radioligand binding (IC50). The affinity (pKi) of the compound may be calculated from the IC50 by application of the Cheng-Prusoff correction. Suitable reagents and protocols are: reaction buffer containing 50 mM HEPES, 10 mM MgCl2, pH adjusted to 7.4 with KOH; SPA beads coated with wheatgerm agglutinin; 1.25 nM [^3H]-prostaglandin E2 as radioligand; 10 μM prostaglandin E2 as unlabelled ligand; a three-fold dilution series of compound starting at 10 μM and ending at 0.3 nM is adequate.

SMILES strings stand for the structures.

T1 sequence (P35408 whole entry): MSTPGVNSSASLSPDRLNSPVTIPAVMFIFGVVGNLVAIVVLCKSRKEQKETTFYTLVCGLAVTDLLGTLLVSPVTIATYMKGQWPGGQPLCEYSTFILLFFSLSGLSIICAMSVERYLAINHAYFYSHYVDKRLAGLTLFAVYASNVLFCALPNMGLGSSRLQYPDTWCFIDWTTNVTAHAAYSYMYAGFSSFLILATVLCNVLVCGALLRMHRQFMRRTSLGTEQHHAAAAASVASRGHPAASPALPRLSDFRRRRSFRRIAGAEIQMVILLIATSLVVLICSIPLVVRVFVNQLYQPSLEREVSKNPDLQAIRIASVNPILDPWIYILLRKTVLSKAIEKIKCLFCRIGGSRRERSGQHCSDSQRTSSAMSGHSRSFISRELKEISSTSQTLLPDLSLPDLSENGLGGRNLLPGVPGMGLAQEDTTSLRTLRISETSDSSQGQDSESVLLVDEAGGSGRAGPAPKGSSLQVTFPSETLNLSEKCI

For the molecule `CCOc1c2c(c(OCC)c3ccccc13)C(=O)N(c1ccc(CS(=O)(=O)NC(=O)Cc3ccccc3Cl)cc1)C2` [Example 29], the Ki is at most 100 nM.

Regarding `CCOc1c2c(c(OCC)c3ccccc13)C(=O)N(c1ccc(CS(=O)(=O)NC(=O)Cc3cccc(C)c3)cc1)C2` [Example 26], the Ki is at most 100 nM.

With `CCOc1c2c(c(OCC)c3ccccc13)C(=O)N(c1ccc(CS(=O)(=O)NC(=O)Cc3ccccc3OC)cc1)C2=O` [Example 71, 1-[4-(4,9-diethoxy-1,3-dioxo-1,3-dihydro-2H-benzo[f]isoindol-2-yl)phenyl]-N-[(2-methoxyphenyl)acetyl]methanesulfonamide], the Ki was at most 100 nM.

Turning to `CCOc1c2c(c(OCC)c3ccccc13)C(=O)N(c1ccc(CS(=O)(=O)NC(=O)Cc3cccc(OCc4ccccc4)c3)cc1)C2` [Example 42], the Ki was at most 100 nM.

`CCOc1c2c(c(OCC)c3ccccc13)C(=O)N(c1ccc(CS(=O)(=O)NC(=O)Cc3cccc(OC)c3)cc1)C2` [Example 43, 1-[4-(4,9-diethoxy-1-oxo-1,3-dihydro-2H-benzo[f]isoindol-2-yl)phenyl]-N-[(3-methoxyphenyl)acetyl]methanesulfonamide]: the Ki is at most 100 nM.

`CCOc1c2c(c(OCC)c3ccccc13)C(=O)N(c1ccc(CS(=O)(=O)NC(=O)C(Cl)c3ccccc3)cc1)C2=O` (stereo not shown) [Example 75]: the Ki was at most 100 nM.

Turning to `CCOc1c2c(c(OCC)c3ccccc13)C(=O)N(c1ccc(CS(=O)(=O)NC(=O)Cc3ccccc3F)cc1)C2` [Example 32], the Ki was at most 100 nM.

Consider `CCOc1c2c(c(OCC)c3ccccc13)C(=O)N(c1ccc(CS(=O)(=O)NC(=O)C(C)c3ccc4cc(OC)ccc4c3)cc1)C2` (stereo not shown) [Example 86], for which the Ki was at most 100 nM.

As for `CCOc1c2c(c(OCC)c3ccccc13)C(=O)N(c1ccc(CS(=O)(=O)NC(=O)Cc3ccc(OC(F)(F)F)cc3)cc1)C2` [Example 80], the Ki is at most 100 nM.

Consider `CCOc1c2c(c(OCC)c3ccccc13)C(=O)N(c1ccc(CS(=O)(=O)NC(=O)Cc3ccc(C(C)C)cc3)cc1)C2` [Example 27], for which the Ki is at most 100 nM.

With `CCOc1c2c(c(OCC)c3ccccc13)C(=O)N(c1ccc(CS(=O)(=O)NC(=O)Cc3ccc(OC)c(OC)c3)cc1)C2` [Example 38, 1-[4-(4,9-diethoxy-1-oxo-1,3-dihydro-2H-benzo[f]isoindol-2-yl)phenyl]-N-[(3,4-dimethoxyphenyl)acetyl]methanesulfonamide], the Ki was at most 100 nM.

Regarding `CCOc1ccc(CC(=O)NS(=O)(=O)Cc2ccc(N3Cc4c(c(OCC)c5ccccc5c4OCC)C3=O)cc2)cc1OCC` [Example 82], the Ki was at most 100 nM.

In the case of `CCOc1c2c(c(OCC)c3ccccc13)C(=O)N(c1ccc(CS(=O)(=O)NC(=O)Cc3ccc(Cl)cc3)cc1)C2=O` [Example 70], the Ki was at most 100 nM.
